Earlier results as cited in patent publication US20110257198A1, “PIPERIDINE DERIVATIVES USEFUL AS OREXIN ANTAGONISTS” (priority 2008, published 2011).
Ends that are not written are not given here.

Experiments:
[1] = system: rats; conditions: rats (White et al 2005)
[2] = system: rats; conditions: rats (Nair et al 2008)
[3] = system: rat; conditions: central administration at the onset of the normal sleep period (Hagan et al 1999)
[4] = system: freely-feeding rats; conditions: central administration, 4 hour time period

Question: What does the source list for `Cc1nc2ccc(NC(=O)Nc3ccnc4cccnc34)cc2o1` [SB334867]?
Answer: effect on hedonic eating [1]: potently reduced hedonic eating; effect on high-fat pellet self-administration [2]: attenuated high-fat pellet self-administration

Question: For “orexin-A: polypeptide ligand for the orexin-1 receptor; an agonist of the orexin receptors (QPLPDCCRQKTCSCRLYELLHGAGNHAAGILTL; ends and bridges not checked; cysteine pairing not given here; UniProt O43612 34-66, looked up)”, which effect on arousal [3] is on record?
Answer: dose-related increase in arousal

Question: And the “increase of food intake over control rats receiving vehicle” value [4]?
Answer: approximately four-fold
